# Like-named read-outs stand apart in the source and are kept apart here.
# Target: T1, Androgen Receptor (Homo sapiens, UniProt P10275)
# T1 construct: endogenous in cells; host or cells: VCaP cells
# T1 sequence (P10275 1-920): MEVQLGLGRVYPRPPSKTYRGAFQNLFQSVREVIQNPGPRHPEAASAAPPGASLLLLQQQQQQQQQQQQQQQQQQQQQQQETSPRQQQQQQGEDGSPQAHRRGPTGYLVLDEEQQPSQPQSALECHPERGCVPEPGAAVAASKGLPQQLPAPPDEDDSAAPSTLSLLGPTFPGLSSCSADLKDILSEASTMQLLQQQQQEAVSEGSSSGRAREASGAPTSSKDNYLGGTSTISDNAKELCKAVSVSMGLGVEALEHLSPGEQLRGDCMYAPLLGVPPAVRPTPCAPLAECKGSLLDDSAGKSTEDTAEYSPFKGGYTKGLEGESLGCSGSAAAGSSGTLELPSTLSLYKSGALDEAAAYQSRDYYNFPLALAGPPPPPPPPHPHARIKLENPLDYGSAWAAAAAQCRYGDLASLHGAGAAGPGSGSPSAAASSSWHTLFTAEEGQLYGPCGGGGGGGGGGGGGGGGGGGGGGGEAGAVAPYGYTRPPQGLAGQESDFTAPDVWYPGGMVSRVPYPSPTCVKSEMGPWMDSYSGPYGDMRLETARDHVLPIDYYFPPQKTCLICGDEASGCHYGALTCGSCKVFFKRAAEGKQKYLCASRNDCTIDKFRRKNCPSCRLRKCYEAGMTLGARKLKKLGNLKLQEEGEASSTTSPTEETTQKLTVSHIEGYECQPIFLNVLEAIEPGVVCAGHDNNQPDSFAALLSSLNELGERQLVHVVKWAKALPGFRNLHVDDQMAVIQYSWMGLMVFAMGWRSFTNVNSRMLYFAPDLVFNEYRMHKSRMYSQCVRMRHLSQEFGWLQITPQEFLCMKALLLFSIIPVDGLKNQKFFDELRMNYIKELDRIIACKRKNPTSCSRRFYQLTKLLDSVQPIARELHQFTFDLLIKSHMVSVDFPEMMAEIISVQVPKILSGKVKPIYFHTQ
# Assay: Androgen Receptor ELISA assay (PathScan AR ELISA) in VCaP cells: AR degradation, Dmax and DC50
# Assay type: cell-based
# In short: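 VCaP cells in phenol red-free RPMI with 5% charcoal-stripped FBS were grown at least 3 days, then given compound as 7 half-log doses in 0.1% DMSO with 0.1 nM R1881 for 24 h. Lysates went into a sandwich AR ELISA with TMB read at 450 nm.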
# [1] = VCaP cells; Table 36; read-out: VCaP DC50
# [2] = VCaP, VCaP cells; Table 36; read-out: VCaP Dmax (%)
DC50 [1] [nM],Dmax [2] [%],"Dmax (VCaP, read-out: VCaP Dmax (%), VCaP cells; Table 36) [%]",SMILES,"Dmax (VCaP, read-out: VCaP Dmax (%)) [%]",DC50 (read-out: VCaP DC50; VCaP cells; Table 36) [nM]
> 501,26 to 50,,"Cc1ncsc1-c1ccc([C@H](C)NC(=O)[C@@H]2C[C@@H](O)CN2C(=O)[C@@H](NC(=O)COCCCCCNC23CC(C(=O)N[C@H]4C(C)(C)[C@H](Oc5ccc(C#N)c(Cl)c5)C4(C)C)(C2)C3)C(C)(C)C)cc1 [Example 666, (2S,4R)-1-((S)-2-(2-((5-((3-(((1r,3r)-3-(3-chloro-4-cyanophenoxy)-2,2,4,4-tetramethylcyclobutyl)carbamoyl)bicyclo[1.1.1]pentan-1-yl)amino)pentyl)oxy)acetamido)-3,3-dimethylbutanoyl)-4-hydroxy-N-((S)-1-(4-(4-methylthiazol-5-yl)phenyl)ethyl)pyrrolidine-2-carboxamide]",,
,,,"Cc1ncsc1-c1ccc([C@H](C)NC(=O)[C@@H]2C[C@@H](O)CN2C(=O)[C@@H](NC(=O)CN2CCO[C@@H](CN3CCO[C@@H](COc4ccc(N5C(=S)N(c6ccc(C#N)c(C(F)(F)F)c6)C(=O)C5(C)C)cc4)C3)C2)C(C)(C)C)cc1 [Example 667, (2S,4R)-1-((S)-2-(2-((S)-2-(((R)-2-((4-(3-(4-cyano-3-(trifluoromethyl)phenyl)-5,5-dimethyl-4-oxo-2-thioxoimidazolidin-1-yl)phenoxy)methyl)mor-pholino)methyl)mor-pholino)acetamido)-3,3-dimethylbutanoyl)-4-hydroxy-N-((S)-1-(4-(4-methylthiazol-5-yl)phenyl)ethyl)pyrrolidine-2-carboxamide]",< 25,> 501
51 to 500,,26 to 50,"CC(NC(=O)C1CC(O)CN1C(=O)C(NC(=O)COCCN1CC2CC1CN2c1ccc(C(=O)NC2C(C)(C)C(Oc3ccc(C#N)c(Cl)c3)C2(C)C)cn1)C(C)(C)C)c1ccc(-c2scnc2CO)cc1 [Example 668, N-((1r,3R)-3-(3-chloro-4-cyanophenoxy)-2,2,4,4-tetramethylcyclobutyl)-6-((1R,4R)-5-(2-(2-(((S)-1-((2S,4R)-4-hydroxy-2-(((S)-1-(4-(4-(hydroxymethyl)thiazol-5-yl)phenyl)ethyl)carbam-oyl)pyrrolidin-1-yl)-3,3-dimethyl-1-oxobutan-2-yl)amino)-2-oxoethoxy)ethyl)-2,5-diazabicyclo[2.2.1]hept-an-2-yl)nicotinamide]",,
< 50,51 to 70,,"Cc1ncsc1-c1ccc(CNC(=O)[C@@H]2C[C@@H](O)CN2C(=O)[C@@H](NC(=O)COCCN2C[C@H]3C[C@@H]2CN3c2ccc(C(=O)N[C@H]3C(C)(C)[C@H](Oc4ccc(C#N)c(Cl)c4)C3(C)C)cn2)C(C)(C)C)cc1 [Example 669, N-((1r,3R)-3-(3-chloro-4-cyanophenoxy)-2,2,4,4-tetramethylcyclobutyl)-6-((1R,4R)-5-(2-(2-(((S)-1-((2S,4R)-4-hydroxy-2-((4-(4-methylthiazol-5-yl)benzyl)carbamoyl)pyrrolidin-1-yl)-3,3-dimethyl-1-oxobutan-2-yl)amino)-2-oxoethoxy)ethyl)-2,5-diazabicyclo[2.2.1]hept-an-2-yl)nicotinamide]",,
> 501,< 25,,"Cc1ncsc1-c1ccc([C@H](C)NC(=O)[C@@H]2C[C@@H](O)CN2C(=O)[C@@H](NC(=O)COCCCCCNc2ccc(C(=O)N[C@H]3C(C)(C)[C@H](Oc4ccc(C#N)c(Cl)c4)C3(C)C)nc2)C(C)C)cc1 [Example 670, N-((1r,3r)-3-(3-chloro-4-cyanophenoxy)-2,2,4,4-tetramethylcyclobutyl)-5-((5-(2-(((S)-1-((2S,4R)-4-hydroxy-2-(((S)-1-(4-(4-methylthiaozl-5-yl)phenyl)ethyl)carbam-oyl)pyrrolidin-1-yl)-3-methyl-1-oxobutan-2-yl)amino)-2-oxoethoxy)pentyl)amino) picolinamide]",,
